The assay concerns the target T1, ACE (Homo sapiens, UniProt P12821).
T1 construct: purchased Shanghai Yuanye Biotechnology Co., Ltd
The assay is described as follows: ACE inhibition rate / IC50 determination with FAPGG substrate (absorbance 340 nm). Conditions: for Inhibitory effect as % of the positive control: ACE inhibition rate relative to captopril; for IC50 / Inhibition Rate of ACE: synthesized peptides, captopril as positive control; for Inhibition Rate of ACE: test concentration not given. In kind it is biochemical. How it is done:
The ACE inhibition rate was determined according to the method developed by Wang. In brief, 1 mmol/L FAPGG solution, 0.1 U/mL ACE solution, and F. velutipes protein solution were mixed in 80 mmol/L HEPES buffer (pH 8.2), and the mixture was added to 96-well plates according to Table 1. The absorbance value at the wavelength of 340 nm at 37 °C and the absorbance value after 30 min of reaction were measured. The calculation formula is as follows: (2) Inhibition Rate of ACE%=(1−ΔA/ΔB)×100
In the formula, ΔA = A1 − A2; ΔB = B1 − B2. ΔA was the absorbance value of the sample pore solution; ΔB was the absorbance value of the control pore solution. A1 and B1 were the absorbance values measured at the wavelength of 340 nm. A2 and B2 were the absorbance values measured at the wavelength of 340 nm after reacting for 30 min at 37 °C.
Wuhan Dangang Biotechnology Co., Ltd. (Wuhan, China) was commissioned to synthesize the peptides. […] With captopril as the positive control, the ACE inhibition rate and IC50 of the above synthetic peptides were determined according to the method of Section 2.5.

Marks after values point to notes of the source that are not given here. Where a SMILES comes first, the peptide text is derived from it. Where no end group is shown, it is not given here.

T1 sequence (P12821 30-1306, species assumed): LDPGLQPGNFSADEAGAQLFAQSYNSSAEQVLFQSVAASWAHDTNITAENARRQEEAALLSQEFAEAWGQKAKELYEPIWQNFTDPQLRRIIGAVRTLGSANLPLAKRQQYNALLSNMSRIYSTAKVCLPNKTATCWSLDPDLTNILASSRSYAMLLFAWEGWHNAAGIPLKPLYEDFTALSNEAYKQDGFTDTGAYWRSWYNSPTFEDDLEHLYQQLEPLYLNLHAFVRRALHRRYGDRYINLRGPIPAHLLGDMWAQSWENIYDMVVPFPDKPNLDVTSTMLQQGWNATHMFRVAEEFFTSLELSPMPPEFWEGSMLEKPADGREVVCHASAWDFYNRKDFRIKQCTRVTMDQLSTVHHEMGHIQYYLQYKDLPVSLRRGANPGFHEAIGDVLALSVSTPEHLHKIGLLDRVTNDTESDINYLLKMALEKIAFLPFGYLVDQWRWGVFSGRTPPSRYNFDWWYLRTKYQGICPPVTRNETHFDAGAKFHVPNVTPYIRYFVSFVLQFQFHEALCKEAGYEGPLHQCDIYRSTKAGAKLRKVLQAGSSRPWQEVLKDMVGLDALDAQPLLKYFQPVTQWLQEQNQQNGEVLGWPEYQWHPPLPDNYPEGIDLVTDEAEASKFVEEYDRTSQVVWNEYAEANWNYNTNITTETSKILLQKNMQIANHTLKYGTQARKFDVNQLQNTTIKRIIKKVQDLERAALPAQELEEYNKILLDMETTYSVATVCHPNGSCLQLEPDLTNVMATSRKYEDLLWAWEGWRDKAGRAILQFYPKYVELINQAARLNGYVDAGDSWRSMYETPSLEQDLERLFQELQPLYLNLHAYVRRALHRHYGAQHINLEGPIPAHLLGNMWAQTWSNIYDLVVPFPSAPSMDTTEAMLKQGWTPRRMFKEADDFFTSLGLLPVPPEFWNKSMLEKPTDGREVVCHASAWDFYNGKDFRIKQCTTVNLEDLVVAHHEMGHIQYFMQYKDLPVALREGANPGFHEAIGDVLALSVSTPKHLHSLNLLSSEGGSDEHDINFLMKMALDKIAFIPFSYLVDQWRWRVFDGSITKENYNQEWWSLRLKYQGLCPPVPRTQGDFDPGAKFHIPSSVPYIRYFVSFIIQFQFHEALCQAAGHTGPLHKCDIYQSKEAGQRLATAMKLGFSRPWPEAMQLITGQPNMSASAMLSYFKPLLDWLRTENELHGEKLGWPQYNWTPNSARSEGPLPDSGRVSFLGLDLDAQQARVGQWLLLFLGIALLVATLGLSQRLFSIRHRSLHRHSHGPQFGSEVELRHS

With FHPGY [FHPGY], the “Inhibitory effect as % of the positive control” value (from here on “Inhibitory effect as %”) worked out at 92.60%, the half-maximal inhibitory concentration (IC50) was 14.8 ± 0.34 µM and the “Inhibition Rate of ACE” value is given as 91.41 ± 1.01 ^b %.
Regarding `N[C@@H](Cc1ccccc1)C(=O)N[C@@H](CC(=O)O)C(=O)NCC(=O)N[C@@H](Cc1ccc(O)cc1)C(=O)O` [FDGY] (H-FDGY-OH; N-terminus and C-terminus assumed), the “Inhibitory effect as %” value is 81.53%, inhibition was half-maximal at 91.5 ± 1.09 µM (IC50) and the “Inhibition Rate of ACE” value is given as 80.48 ± 0.84 ^e %.
With `C[C@H](NC(=O)[C@@H](N)Cc1c[nH]c2ccccc12)C(=O)N[C@@H](CC(=O)O)C(=O)N1CCC[C@H]1C(=O)O` [WADP] (H-WADP-OH; N-terminus and C-terminus assumed), the “Inhibitory effect as %” value was found to be 84.13%, the half-inhibitory concentration (IC50) is 41.3 ± 0.7 µM and the “Inhibition Rate of ACE” value is 83.04 ± 0.68 ^d %.
Regarding FAGGP [FAGGP], the “Inhibitory effect as %” value was 87.04%, half-maximal inhibition (IC50) required 29.2 ± 1.37 µM and the “Inhibition Rate of ACE” value is 85.92 ± 1.81 ^c %.

The record behind these values is article PMC12346769, “Activity Analysis and Inhibition Mechanism of Four Novel Angiotensin I-Converting Enzyme Inhibitory Peptides Prepared from Flammulina velutipes by Enzymatic Hydrolysis” (Foods, 2025).
